The target of the test is Polθ theta (1-899) (hPolQ) (Homo sapiens (Human), UniProt O75417). In words: Biological Assay 1: Polθ ATPase activity, NADH oxidation-coupled enzymatic assay (10 nM enzyme, 30 min). It counts as biochemical. Conditions: Polθ (1-899) 10 nM, 100 μM ATP, 300 nM dT50 ssDNA; Examples 1 to 268; read-out: ATPase NADH coupling:Standard Screening:hPolQ IC50. An outline of the steps: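 Polθ (1-899) at 10 nM was preincubated with compound for 15 min at room temperature in 20 mM Tris pH 7.80, 80 mM KCl, 10 mM MgCl2. An equal volume of 100 μM ATP, 300 nM dT50 ssDNA and a PK/LDH–NADH coupling system was then added. A340 was read each minute for 30 min. IC50 came from rate slopes over 10-point series with a four-parameter fit.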
Sequence of Polθ theta (1-899) (hPolQ) (O75417 1-899): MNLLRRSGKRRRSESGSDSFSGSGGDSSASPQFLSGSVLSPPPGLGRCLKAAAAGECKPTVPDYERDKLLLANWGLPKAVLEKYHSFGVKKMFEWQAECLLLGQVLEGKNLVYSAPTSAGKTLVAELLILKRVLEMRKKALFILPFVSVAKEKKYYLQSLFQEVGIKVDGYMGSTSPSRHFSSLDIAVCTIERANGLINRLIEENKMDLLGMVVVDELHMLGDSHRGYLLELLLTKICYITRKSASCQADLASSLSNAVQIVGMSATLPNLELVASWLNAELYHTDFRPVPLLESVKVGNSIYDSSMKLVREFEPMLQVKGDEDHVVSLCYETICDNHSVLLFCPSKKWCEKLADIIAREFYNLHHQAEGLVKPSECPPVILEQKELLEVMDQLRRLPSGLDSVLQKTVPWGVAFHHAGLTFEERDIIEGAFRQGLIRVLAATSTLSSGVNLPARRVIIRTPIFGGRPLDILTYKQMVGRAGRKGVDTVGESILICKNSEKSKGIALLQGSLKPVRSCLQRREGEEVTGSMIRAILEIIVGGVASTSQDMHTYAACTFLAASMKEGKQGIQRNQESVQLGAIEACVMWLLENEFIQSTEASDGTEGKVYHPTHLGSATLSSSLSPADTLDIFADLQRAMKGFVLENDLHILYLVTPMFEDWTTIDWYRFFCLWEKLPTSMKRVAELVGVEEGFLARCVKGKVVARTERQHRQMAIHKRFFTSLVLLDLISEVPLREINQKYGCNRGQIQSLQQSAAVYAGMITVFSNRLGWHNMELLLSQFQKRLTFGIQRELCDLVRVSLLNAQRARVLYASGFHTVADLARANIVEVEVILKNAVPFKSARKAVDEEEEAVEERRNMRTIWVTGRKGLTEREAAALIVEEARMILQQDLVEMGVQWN

For 28 compounds, IC50 results are on record in patent US20250325552A1, “SUBSTITUTED THIADIAZOLYL DERIVATIVES AS DNA POLYMERASE THETA INHIBITORS” (IDEAYA Biosciences, Inc., priority 2020, published 2025).

A value given as a limit tells only on which side of the number the result lay.

In general, IC50 refers to the concentration that gives 50% inhibition.

Turning to `COc1cnc(C)cc1-c1cc(C)ncc1C(=O)Nc1nnc(OCc2ccc(C(C)(C)O)cn2)s1` [Example 76, N-(5-((5-(2-hydroxypropan-2-yl)pyridin-2-yl)methoxy)-1,3,4-thiadiazol-2-yl)-5′-methoxy-2′,6-dimethyl-(4,4′-bipyridine)-3-carboxamide], the IC50 is at most 200 nM.
With `COc1c(-c2cc(C)ncc2C(=O)Nc2nnc(OCc3ccc(Cl)cn3)s2)ccnc1Cl` [Example 77, 2′-chloro-N-(5-((5-chloropyridin-2-yl)methoxy)-1,3,4-thiadiazol-2-yl)-3′-methoxy-6-methyl-(4,4′-bipyridine)-3-carboxamide], the IC50 is at most 200 nM.
In the case of `COc1cnc(Cl)cc1-c1cc(C)ncc1C(=O)Nc1nnc(OCC23CC(F)(C2)C3)s1` [Example 78, 2′-chloro-N-(5-((3-fluorobicyclo(1.1.1)pentan-1-yl)methoxy)-1,3,4-thiadiazol-2-yl)-5′-methoxy-6-methyl-(4,4′-bipyridine)-3-carboxamide], the IC50 is at most 200 nM.
Next, `COc1cccc(F)c1-c1cc(C)ncc1C(=O)Nc1nnc(OCc2ccc(C(C)(C)OC)cn2)s1` [Example 80, 4-(2-fluoro-6-methoxyphenyl)-N-(5-((5-(2-methoxypropan-2-yl)pyridin-2-yl)methoxy)-1,3,4-thiadiazol-2-yl)-6-methylnicotinamide]: at most 200 nM; `COc1cccc(F)c1-c1cnncc1C(=O)Nc1nnc(OCc2ccc(C(C)(C)O)cn2)s1` [Example 81, 5-(2-fluoro-6-methoxyphenyl)-N-(5-((5-(2-hydroxypropan-2-yl)pyridin-2-yl)methoxy)-1,3,4-thiadiazol-2-yl)pyridazine-4-carboxamide]: at most 200 nM; `COc1cnc(C)cc1-c1cc(C)ncc1C(=O)Nc1nnc(OCc2ccc(OC(F)F)cn2)s1` [Example 82, N-(5-((5-(difluoromethoxy)pyridin-2-yl)methoxy)-1,3,4-thiadiazol-2-yl)-5′-methoxy-2′,6-dimethyl-(4,4′-bipyridine)-3-carboxamide]: at most 200 nM.
Next, `COc1cnc(C)cc1-c1cc(C)ncc1C(=O)Nc1nnc(OCc2ccc(C(C)(C)C#N)cn2)s1` [Example 83, N-(5-((5-(2-cyanopropan-2-yl)pyridin-2-yl)methoxy)-1,3,4-thiadiazol-2-yl)-5′-methoxy-2′,6-dimethyl-(4,4′-bipyridine)-3-carboxamide]: at most 200 nM; `COc1cnc(Cl)cc1-c1cc(C)ncc1C(=O)Nc1nnc(OCc2ccc(C(C)(C)C#N)cn2)s1` [Example 84, 2′-chloro-N-(5-((5-(2-cyanopropan-2-yl)pyridin-2-yl)methoxy)-1,3,4-thiadiazol-2-yl)-5′-methoxy-6-methyl-(4,4′-bipyridine)-3-carboxamide]: at most 200 nM; `COc1c(-c2cc(C)ncc2C(=O)Nc2nnc(OCc3ccc(Cl)cn3)s2)ccnc1C#N` [Example 85, N-(5-((5-chloropyridin-2-yl)methoxy)-1,3,4-thiadiazol-2-yl)-2′-cyano-3′-methoxy-6-methyl-[4,4′-bipyridine]-3-carboxamide]: at most 200 nM.
Next, `COc1cnc(Cl)cc1-c1cc(C)ncc1C(=O)Nc1nnc(OCc2ccc(C3(C)COC3)cn2)s1` [Example 86, 2′-chloro-5′-methoxy-6-methyl-N-(5-((5-(3-methyloxetan-3-yl)pyridin-2-yl)methoxy)-1,3,4-thiadiazol-2-yl)-[4,4′-bipyridine]-3-carboxamide]: at most 200 nM; `COc1cccc(F)c1-c1cc(C)ncc1C(=O)Nc1nnc(OCc2ncc(C(C)(C)O)cc2F)s1` [Example 87, N-(5-((3-fluoro-5-(2-hydroxypropan-2-yl)pyridin-2-yl)methoxy)-1,3,4-thiadiazol-2-yl)-4-(2-fluoro-6-methoxyphenyl)-6-methylpyridine-3-carboxamide]: at most 200 nM; `COc1cccc(F)c1-c1cc(C)ncc1C(=O)Nc1nnc(OCc2ccc(C(C)(C)C#N)cn2)s1` [Example 88, N-(5-((5-(2-cyanopropan-2-yl)pyridin-2-yl)methoxy)-1,3,4-thiadiazol-2-yl)-4-(2-fluoro-6-methoxyphenyl)-6-methylnicotinamide]: at most 200 nM.
On to `Cc1cc(-c2cc(C)ncc2C(=O)Nc2nnc(OCc3ccc(C(C)(C)O)cn3)s2)ccn1` [Example 89, N-(5-((5-(2-hydroxypropan-2-yl)pyridin-2-yl)methoxy)-1,3,4-thiadiazol-2-yl)-2′,6-dimethyl-(4,4′-bipyridine)-3-carboxamide], for which the IC50 was 200 to 500 nM.
Next, `COc1cnc(C)cc1-c1cc(C)ncc1C(=O)Nc1nnc(OCc2ccc(C(=O)O)cn2)s1` [Example 90, 6-(((5-(5′-methoxy-2′,6-dimethyl-(4,4′-bipyridine)-3-amido)-1,3,4-thiadiazol-2-yl)oxy)methyl)pyridine-3-carboxylic acid]: at most 200 nM.
Next, `COc1cccc(COc2nnc(NC(=O)c3cnc(C)cc3-c3c(F)cccc3OC)s2)n1` [Example 91, 4-(2-fluoro-6-methoxyphenyl)-N-(5-((6-methoxypyridin-2-yl)methoxy)-1,3,4-thiadiazol-2-yl)-6-methylpyridine-3-carboxamide]: at most 200 nM.
Next, `COc1cccc(F)c1-c1cc(C)ncc1C(=O)Nc1nnc(OCc2ccc([C@H](C)OC)cn2)s1` [Example 93, 4-(2-fluoro-6-methoxyphenyl)-N-(5-((5-((S)-1-methoxyethyl)pyridin-2-yl)methoxy)-1,3,4-thiadiazol-2-yl)-6-methylnicotinamide]: at most 200 nM; `COc1cccc(F)c1-c1cc(C)ncc1C(=O)Nc1nnc(OCc2ccc([C@@H](C)OC)cn2)s1` [Example 94, 4-(2-fluoro-6-methoxyphenyl)-N-(5-((5-((R)-1-methoxyethyl)pyridin-2-yl)methoxy)-1,3,4-thiadiazol-2-yl)-6-methylnicotinamide]: at most 200 nM; `COc1cccc(F)c1-c1cc(C)ncc1C(=O)Nc1nnc(OCC23CC(C#N)(C2)C3)s1` [Example 95, N-(5-((3-cyanobicyclo(1.1.1)pentan-1-yl)methoxy)-1,3,4-thiadiazol-2-yl)-4-(2-fluoro-6-methoxyphenyl)-6-methylpyridine-3-carboxamide]: at most 200 nM.
Consider `COc1ccc(Cl)cc1-c1cc(C)ncc1C(=O)Nc1nnc(OCc2ccc(C(C)(C)O)cn2)s1` [Example 96, 4-(5-chloro-2-methoxyphenyl)-N-(5-((5-(2-hydroxypropan-2-yl)pyridin-2-yl)methoxy)-1,3,4-thiadiazol-2-yl)-6-methylnicotinamide], for which the IC50 is at most 200 nM.
Turning to `COc1cccc(F)c1-c1cc(C)ncc1C(=O)Nc1nnc(OCc2cnc(CO)cn2)s1` [Example 97, 4-(2-fluoro-6-methoxyphenyl)-N-(5-((5-(hydroxymethyl)pyrazin-2-yl)methoxy)-1,3,4-thiadiazol-2-yl)-6-methylnicotinamide], the IC50 is at most 200 nM.
For `COc1cnc(C)cc1-c1cc(C)ncc1C(=O)Nc1nnc(OCC23CC(O)(C2)C3)s1` [Example 98, N-(5-((3-hydroxybicyclo(1.1.1)pentan-1-yl)methoxy)-1,3,4-thiadiazol-2-yl)-5′-methoxy-2′,6-dimethyl-(4,4′-bipyridine)-3-carboxamide], the 50% inhibitory concentration (IC50) was at most 200 nM.
As for `COc1cnc(Cl)cc1-c1cc(C)ncc1C(=O)Nc1nnc(OCC23CC(O)(C2)C3)s1` [Example 99, 2′-chloro-N-(5-((3-hydroxybicyclo(1.1.1)pentan-1-yl)methoxy)-1,3,4-thiadiazol-2-yl)-5′-methoxy-6-methyl-(4,4′-bipyridine)-3-carboxamide], the IC50 is at most 200 nM.
As for `COc1cnc(C)cc1-c1cc(C)ncc1C(=O)Nc1nnc(OC[C@H]2CC[C@H](O)CC2)s1` [Example 100, N-(5-(((1r,4r)-4-hydroxycyclohexyl)methoxy)-1,3,4-thiadiazol-2-yl)-5′-methoxy-2′,6-dimethyl-[4,4′-bipyridine]-3-carboxamide], the IC50 is at most 200 nM.
As for `COc1cccc(F)c1-c1cc(C)ncc1C(=O)Nc1nnc(OC[C@H]2CC[C@@H](O)CC2)s1` [Example 101, 4-(2-fluoro-6-methoxyphenyl)-N-(5-(((1s,4s)-4-hydroxycyclohexyl)methoxy)-1,3,4-thiadiazol-2-yl)-6-methylnicotinamide], the IC50 is at most 200 nM.
The same measure for `COc1cccc(F)c1-c1cc(C)ncc1C(=O)Nc1nnc(OCc2ccc3c(n2)CCOC3)s1` [Example 102, 4-(2-fluoro-6-methoxyphenyl)-6-methyl-N-(5-(5H,7H,8H-pyrano(4,3-b)pyridin-2-ylmethoxy)-1,3,4-thiadiazol-2-yl)pyridine-3-carboxamide]: at most 200 nM.
Next, `COc1cccc(F)c1-c1cc(C)ncc1C(=O)Nc1nnc(OCC23CC(C(C)(C)O)(C2)C3)s1` [Example 103, 4-(2-fluoro-6-methoxyphenyl)-N-(5-((3-(2-hydroxypropan-2-yl)bicyclo(1.1.1)pentan-1-yl)methoxy)-1,3,4-thiadiazol-2-yl)-6-methylpyridine-3-carboxamide]: at most 200 nM; `COc1cccc(F)c1-c1cc(C)ncc1C(=O)Nc1nnc(OC[C@H]2CC[C@H](O)CC2)s1` [Example 104, 4-(2-fluoro-6-methoxyphenyl)-N-(5-(((1r,4r)-4-hydroxycyclohexyl)methoxy)-1,3,4-thiadiazol-2-yl)-6-methylnicotinamide]: at most 200 nM; `COc1cnc(C2CC2)cc1-c1cc(C)ncc1C(=O)Nc1nnc(OCc2ccc(C(C)(C)O)cn2)s1` [Example 105, 2′-cyclopropyl-N-(5-((5-(2-hydroxypropan-2-yl)pyridin-2-yl)methoxy)-1,3,4-thiadiazol-2-yl)-5′-methoxy-6-methyl-[4,4′-bipyridine]-3-carboxamide]: at most 200 nM.
